Reference: patent US20240010635A1, “NOVEL INDIRUBIN DERIVATIVES HAVING HETEROBICYCLIC MOIETIES AND THE USE THEREOF” (priority 2022, published 2024)

Assays:
Assay type in all cases: cell-based
MV4-11 = test: Cell proliferation inhibition in AML cell line MV4-11 (Alamar Blue); conditions: Homo sapiens, MV4-11, 72 hours, read-out: Cell proliferation inhibitory activity (GI50) MV4-11
From the text: (§1) Cell proliferation inhibition experiments on acute myeloid leukemia (AML) cell lines tested FLT3 inhibitory activity using MV4-11, Molm-13, and Molm-14 cells, which are FLT3-ITD-expressed AML cell lines. The origin of all cell lines is human-derived cell lines, and the place of purchase and culture conditions of each cell line are as follows.
(§2) MV4-11 cells were purchased form the American Type Culture Collection (ATCC, Rockville, MD, USA, cat #CRL-9591), Molm-13 (DSMZ, cat #ACC554), Molm-14 (DSMZ, cat #ACC777), and then cultured in RPMI 1640 medium (Corning Co. 10-040-CV) supplemented with 10% fetal bovine serum, 1% penicillin/streptomycin and 4 mM L-glutamine (Life Technology, GrandIsland, NY).
(§3) Cell viability was evaluated by Resazurin redox-based analysis method with Alamar Blue Assay Kit (Invitrogen, USA). Specifically, for MV4-11, Molm-13 and Molm-14 cells, 8000 cells were plated on 384-well plates in 45 μl of medium. Compounds were treated with dimethyl sulfoxide (DMSO) as a negative control group. After 3 days (72 hours) of compound addition, 5 μl of Alamar Blue kit reagent was added to each well of 384-well plate and incubated at 37° C. for 2 hours in a humidified CO2 incubator. After incubation, fluorescence density (Flu) was measured at a wavelength of 544 nm and 590 nm using SpectraMax iD3 Multi Mode Microplate Reader (Molecular Devices, ID3-STD). GI50 was calculated by nonlinear regression using Prism version 5.01 (GraphPad, LaJolla, CA, USA).

Molm-13 = test: Cell proliferation inhibition in AML cell line Molm-13 (Alamar Blue); conditions: Homo sapiens, Molm-13, 72 hours, read-out: Cell proliferation inhibitory activity (GI50) Molm-13
From the text: as §1, §2, §3

Molm-14 = test: Cell proliferation inhibition in AML cell line Molm-14 (Alamar Blue); conditions: Homo sapiens, Molm-14, 72 hours, read-out: Cell proliferation inhibitory activity (GI50) Molm-14
From the text: as §1, §2, §3

Compound | GI50 (MV4-11) [nM] | GI50 (Molm-13) [nM] | GI50 (Molm-14) [nM]
O=C1Nc2cc(Br)ccc2/C1=C1/Nc2ccccc2/C1=N\OCCN1CCNCC1 [Comparative Example 1, reference compound] | 20 | 11.2 | 9.36
O=C1Nc2ccc(F)cc2/C1=C1/Nc2ccccc2/C1=N\OCCN1CCNCC1 [Comparative Example 3, reference compound] | 3.7 | 2.53 | 1.6
O=C1Nc2ccc(Br)cc2/C1=C1/Nc2ccccc2/C1=N\OCCN1CCNCC1 [Comparative Example 2, reference compound] | 7 | 4.08 | 4.08
